This passage reports EC50 results from patent publication US9175003B2, “Substituted azoanthracene derivatives and intermediates for preparation thereof” (TransTech Pharma, LLC, priority 2009, dated 2015).

The structures appear in SMILES notation.

One may read the EC50 as the concentration giving half of the maximal effect.

The test deals with human GLP-1 receptor (Homo sapiens (Human), UniProt P43220). As to conditions: read-out: Mean EC50; cAMP, HTRF detection, 30 min at 37° C., HEK-293 cells expressing cloned human GLP-1 receptor. A general note: Time-resolved FRET reads energy transfer from a long-lived donor to a nearby acceptor.
human GLP-1 receptor, sequence (P43220 24-463): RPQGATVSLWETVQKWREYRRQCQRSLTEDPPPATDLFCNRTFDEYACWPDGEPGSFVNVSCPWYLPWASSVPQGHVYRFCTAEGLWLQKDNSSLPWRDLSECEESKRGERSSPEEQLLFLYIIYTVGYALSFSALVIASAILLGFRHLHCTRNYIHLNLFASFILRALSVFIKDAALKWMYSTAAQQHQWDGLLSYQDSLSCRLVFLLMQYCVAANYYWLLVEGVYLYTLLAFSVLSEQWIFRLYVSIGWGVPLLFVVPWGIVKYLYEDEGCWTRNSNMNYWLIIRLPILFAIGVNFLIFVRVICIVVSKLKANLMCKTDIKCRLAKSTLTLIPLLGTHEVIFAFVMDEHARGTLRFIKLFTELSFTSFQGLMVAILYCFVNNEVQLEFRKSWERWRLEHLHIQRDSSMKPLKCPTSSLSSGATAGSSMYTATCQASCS
For the compound `Cc1nc(C(=O)N2Cc3cc4c(cc3C[C@H]2C(=O)N[C@@H](Cc2ccc(-c3ccnc(C)c3C)cc2)C(=O)O)OC[C@H](c2ccc(OCc3cc(Cl)cc(Cl)c3)cc2)O4)c(C)o1` [Example 384, (S)-2-{[(3S,8S)-3-[4-(3,5-Dichloro-benzyloxy)-phenyl]-7-(2,5-dimethyl-oxazole-4-carbonyl)-2,3,6,7,8,9-hexahydro-[1,4]dioxino[2,3-g]isoquinoline-8-carbonyl]-amino}-3-[4-(2,3-dimethyl-pyridin-4-yl)-phenyl]-propionic acid], the EC50 came out at 26 nM.

For the compound `Cc1nc(C(=O)N2Cc3cc4c(cc3C[C@H]2C(=O)N[C@@H](Cc2ccc(-c3ccnc(C)c3C)cc2)C(=O)O)OC[C@H](c2ccc(O[C@H]3CC[C@@H](C(C)(C)C)CC3)cc2)O4)c(C)o1` [Example 386, (S)-2-{[(3S,8S)-3-[4-(cis-4-tert-Butyl-cyclohexyloxy)-phenyl]-7-(2,5-dimethyl-oxazole-4-carbonyl)-2,3,6,7,8,9-hexahydro-[1,4]dioxino[2,3-g]isoquinoline-8-carbonyl]-amino}-3-[4-(2,3-dimethyl-pyridin-4-yl)-phenyl]-propionic acid], the EC50 came to 269 nM.

`Cc1nc(C(=O)N2Cc3cc4c(cc3C[C@H]2C(=O)N[C@@H](Cc2ccc(-c3ccnc(C)c3C)cc2)C(=O)O)OC[C@H](c2ccc(OCCc3ccc(Cl)c(Cl)c3)cc2)O4)c(C)o1` [Example 387, (S)-2-{[(3S,8S)-3-{4-[2-(3,4-Dichloro-phenyl)-ethoxy]-phenyl}-7-(2,5-dimethyl-oxazole-4-carbonyl)-2,3,6,7,8,9-hexahydro-[1,4]dioxino[2,3-g]isoquinoline-8-carbonyl]-amino}-3-[4-(2,3-dimethyl-pyridin-4-yl)-phenyl]-propionic acid]: the EC50 amounted to 34 nM.

As to `Cc1nccc(-c2ccc(C[C@H](NC(=O)[C@@H]3Cc4cc5c(cc4CN3C(=O)N[C@H](C)c3ccccc3)O[C@@H](c3ccc(OCCc4ccc(Cl)cc4)cc3)CO5)C(=O)O)cc2)c1C` [Example 388, (S)-2-{[(3S,8S)-3-{4-[2-(4-Chloro-phenyl)-ethoxy]-phenyl}-7-((R)-1-phenyl-ethylcarbamoyl)-2,3,6,7,8,9-hexahydro-[1,4]dioxino[2,3-g]isoquinoline-8-carbonyl]-amino}-3-[4-(2,3-dimethyl-pyridin-4-yl)-phenyl]-propionic acid], the EC50 was 179 nM.

As for `Cc1nccc(-c2ccc(C[C@H](NC(=O)[C@@H]3Cc4cc5c(cc4CN3C(=O)N[C@H](C)c3ccccc3)O[C@@H](c3ccc(O[C@H]4CC[C@H](C(C)(C)C)CC4)cc3)CO5)C(=O)O)cc2)c1C` [Example 389, (S)-2-{[(3S,8S)-3-[4-(trans-4-tert-Butyl-cyclohexyloxy)-phenyl]-7-((R)-1-phenyl-ethylcarbamoyl)-2,3,6,7,8,9-hexahydro-[1,4]dioxino[2,3-g]isoquinoline-8-carbonyl]-amino}-3-[4-(2,3-dimethyl-pyridin-4-yl)-phenyl]-propionic acid], the EC50 amounted to 191 nM.

In the case of `Cc1nccc(-c2ccc(C[C@H](NC(=O)[C@@H]3Cc4cc5c(cc4CN3C(=O)N[C@H](C)c3ccccc3)O[C@@H](c3ccc(OCc4cc(Cl)cc(Cl)c4)cc3)CO5)C(=O)O)cc2)c1C` [Example 393, (S)-2-{[(3S,8S)-3-[4-(3,5-dichloro-benzyloxy)-phenyl]-7-((R)-1-phenyl-ethylcarbamoyl)-2,3,6,7,8,9-hexahydro-[1,4]dioxino[2,3-g]isoquinoline-8-carbonyl]-amino}-3-[4-(2,3-dimethyl-pyridin-4-yl)-phenyl]-propionic acid], the EC50 worked out at 74 nM.

Consider `Cc1nccc(-c2ccc(C[C@H](NC(=O)[C@@H]3Cc4cc5c(cc4CN3C(=O)N[C@H](C)c3ccccc3)O[C@@H](c3ccc(OCCc4ccc(Cl)c(Cl)c4)cc3)CO5)C(=O)O)cc2)c1C` [Example 396, (S)-2-{[(3S,8S)-3-{4-[2-(3,4-Dichloro-phenyl)-ethoxy]-phenyl}-7-((R)-1-phenyl-ethylcarbamoyl)-2,3,6,7,8,9-hexahydro-[1,4]dioxino[2,3-g]isoquinoline-8-carbonyl]-amino}-3-[4-(2,3-dimethyl-pyridin-4-yl)-phenyl]-propionic acid], for which the half-maximal effective concentration (EC50) was 156 nM.

Take `Cc1nccc(Oc2ccc(C[C@H](NC(=O)[C@@H]3Cc4cc5c(cc4CN3C(=O)OC(C)(C)C)O[C@@H](c3ccc(OCc4ccc(Cl)c(Cl)c4)cc3)CO5)C(=O)O)cc2)c1C` [Example 403, (3S,8S)-8-{(S)-1-Carboxy-2-[4-(2,3-dimethyl-pyridin-4-yloxy)-phenyl]-ethylcarbamoyl}-3-[4-(3,4-dichloro-benzyloxy)-phenyl]-2,3,8,9-tetrahydro-6H-[1,4]dioxino[2,3-g]isoquinoline-7-carboxylic acid tert-butyl ester]: the EC50 is 138 nM.

For `Cc1nc(C(=O)N2Cc3cc4c(cc3C[C@H]2C(=O)N[C@@H](Cc2ccc(-c3ccnc(C)c3C)cc2)C(=O)O)OC[C@H](c2ccc(OCC3CCCCC3)cc2)O4)c(C)o1` [Example 405, (S)-2-{[(3S,8S)-3-(4-Cyclohexylmethoxy-phenyl)-7-(2,5-dimethyl-oxazole-4-carbonyl)-2,3,6,7,8,9-hexahydro-[1,4]dioxino[2,3-g]isoquinoline-8-carbonyl]-amino}-3-[4-(2,3-dimethyl-pyridin-4-yl)-phenyl]-propionic acid], the EC50 worked out at 213 nM.

In the case of `Cc1nccc(-c2ccc(C[C@H](NC(=O)[C@@H]3Cc4cc5c(cc4CN3C(=O)c3cccc(F)c3)O[C@@H](c3ccc(OCc4ccc(Cl)c(Cl)c4)cc3)CO5)C(=O)O)cc2)c1C` [Example 409, (S)-2-{[(3S,8S)-3-[4-(3,4-Dichloro-benzyloxy)-phenyl]-7-(3-fluoro-benzoyl)-2,3,6,7,8,9-hexahydro-[1,4]dioxino[2,3-g]isoquinoline-8-carbonyl]-amino}-3-[4-(2,3-dimethyl-pyridin-4-yl)-phenyl]-propionic acid], the EC50 came out at 24 nM.

For `Cc1nc(N)sc1S(=O)(=O)N1Cc2cc3c(cc2C[C@H]1C(=O)N[C@@H](Cc1ccc(-c2ccnc(C)c2C)cc1)C(=O)O)OC[C@H](c1ccc(OCc2ccc(Cl)c(Cl)c2)cc1)O3` [Example 411, (S)-2-({(3S,8S)-7-(2-Amino-4-methyl-thiazole-5-sulfonyl)-3-[4-(3,4-dichloro-benzyloxy)-phenyl]-2,3,6,7,8,9-hexahydro-[1,4]dioxino[2,3-g]isoquinoline-8-carbonyl}-amino)-3-[4-(2,3-dimethyl-pyridin-4-yl)-phenyl]-propionic acid], the EC50 was found to be 9 nM.

Consider `Cc1nccc(-c2ccc(C[C@H](NC(=O)[C@@H]3Cc4cc5c(cc4CN3C(=O)N[C@H](C)c3ccccc3)O[C@@H](c3cccc(OCc4ccc(Cl)c(Cl)c4)c3)CO5)C(=O)O)cc2)c1C` [Example 414, (S)-2-{[(3S,8S)-3-[3-(3,4-Dichloro-benzyloxy)-phenyl]-7-((R)-1-phenylethylcarbamoyl)-2,3,6,7,8,9-hexahydro-[1,4]dioxino[2,3-g]isoquinoline-8-carbonyl]-amino}-3-[4-(2,3-dimethyl-pyridin-4-yl)-phenyl]-propionic acid], for which the concentration for a half-maximal effect (EC50) was 191 nM.

As to `Cc1nc(C(=O)N2Cc3cc4c(cc3C[C@H]2C(=O)N[C@@H](Cc2ccc(-c3ccnc(C)c3C)cc2)C(=O)O)OC[C@H](c2cccc(OCc3ccc(Cl)c(Cl)c3)c2)O4)c(C)o1` [Example 415, (S)-2-{[(3S,8S)-3-[3-(3,4-Dichloro-benzyloxy)-phenyl]-7-(2,5-dimethyl-oxazole-4-carbonyl)-2,3,6,7,8,9-hexahydro-[1,4]dioxino[2,3-g]isoquinoline-8-carbonyl]-amino}-3-[4-(2,3-dimethyl-pyridin-4-yl)-phenyl]-propionic acid], the EC50 is 75 nM.

Consider `CC[C@@H](c1ccccc1)N1Cc2cc3c(cc2C[C@H]1C(=O)N[C@@H](Cc1ccc(-c2ccnc(C)c2C)cc1)C(=O)O)OC[C@H](c1cccc(OCc2ccc(Cl)c(Cl)c2)c1)O3` [Example 419, (S)-2-{[(3S,8S)-3-[3-(3,4-Dichloro-benzyloxy)-phenyl]-7-((S)-1-phenyl-propyl)-2,3,6,7,8,9-hexahydro-[1,4]dioxino[2,3-g]isoquinoline-8-carbonyl]-amino}-3-[4-(2,3-dimethyl-pyridin-4-yl)-phenyl]-propionic acid], for which the EC50 is 90 nM.

Regarding `CC[C@@H](c1ccccc1)N1Cc2cc3c(cc2C[C@H]1C(=O)N[C@@H](Cc1ccc(Oc2ccnc(C)c2C)cc1)C(=O)O)OC[C@H](c1cccc(OCc2ccc(Cl)c(Cl)c2)c1)O3` [Example 422, (S)-2-{[(3S,8S)-3-[3-(3,4-Dichloro-benzyloxy)-phenyl]-7-((S)-1-phenyl-propyl)-2,3,6,7,8,9-hexahydro-[1,4]dioxino[2,3-g]isoquinoline-8-carbonyl]-amino}-3-[4-(2,3-dimethyl-pyridin-4-yloxy)-phenyl]-propionic acid], the EC50 stood at 8 nM.

On to `CC[C@@H](c1ccccc1)N1Cc2cc3c(cc2C[C@H]1C(=O)N[C@@H](Cc1ccc(-c2ccnc(C)c2C)cc1)C(=O)O)OC[C@H](c1ccc(Oc2ccccc2)cc1)O3` [Example 424, (S)-3-[4-(2,3-Dimethyl-pyridin-4-yl)-phenyl]-2-{[(3S,8S)-3-(4-phenoxy-phenyl)-7-((S)-1-phenyl-propyl)-2,3,6,7,8,9-hexahydro-[1,4]dioxino[2,3-g]isoquinoline-8-carbonyl]-amino}-propionic acid], for which the EC50 was 203 nM.

As to `Cc1nccc(-c2ccc(C[C@H](NC(=O)[C@@H]3Cc4cc5c(cc4CN3C(=O)OC(C)(C)C)O[C@H](c3ccc(OCc4ccc(Cl)c(Cl)c4)cc3)CO5)C(=O)O)cc2)c1C` [Example 427, (3R,8S)-8-{(S)-1-Carboxy-2-[4-(2,3-dimethyl-pyridin-4-yl)-phenyl]-ethylcarbamoyl}-3-[4-(3,4-dichloro-benzyloxy)-phenyl]-2,3,8,9-tetrahydro-6H-[1,4]dioxino[2,3-g]isoquinoline-7-carboxylic acid tert-butyl ester], the EC50 worked out at 84 nM.
